Drawing on patent US8304447B2, “2-acylaminopropoanol-type glucosylceramide synthase inhibitors” (Genzyme Corporation, priority 2007, dated 2012), this text covers IC50 for 20 molecules.

pIC50: −log10 of the molar value. Bounds are passed on as bounds.

The test concerns GM3. As to the kind of experiment: GM3 Elisa assay. Type of test: cell-based. The conditions noted are these: Table 3 (IC 50 Values); B16-FO cells; read-out: IC50_uM_Mean. In short, it runs like this: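 Cellular GM3 ELISA: fixed cells probed with monoclonal anti-GM3 (NeuAc), HRP-conjugated anti-IgM and fluorogenic Quantablu substrate, read at Ex 325/Em 420. Cells were B16-FO, treated 2 days after a 6 h attachment on collagen-coated wells.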
In the case of `COc1ccc(OCCC(=O)N(Cc2ccc(-c3nc(C)no3)cc2)[C@H](CN2CCCC2)[C@H](O)c2ccc(O)cc2)cc1` [Compound 721], the pIC50 is 5.00 to 5.52.

As to `COc1ccc(OCCC(=O)N[C@H](CN2CCCC2)[C@H](O)c2ccc(OCCOc3cccc(C)c3)cc2)cc1` [Compound 722], the pIC50 is no less than 7.00.

With `COc1ccc(OCCC(=O)N[C@H](CN2CCCC2)[C@H](O)c2ccc(OCCOc3ccc(Cl)cc3)cc2)cc1` [Compound 723], the pIC50 is no less than 7.00.

Take `CC(=O)c1ccc(OCCCC(=O)N[C@H](CN2CCCC2)[C@H](O)c2ccc(OC(C)C)cc2)cc1` [Compound 724]: the pIC50 was 6.00 to 7.00.

Regarding `CC(C)Oc1ccc([C@@H](O)[C@@H](CN2CCC(F)C2)NC(=O)CCOc2ccc(Cl)cc2)cc1` (some centres unmarked) [Compound 725], the pIC50 is 6.00 to 7.00.

`CC(C)Oc1ccc([C@@H](O)[C@@H](CN2CCC(F)C2)NC(=O)NCc2ccc(Cl)cc2)cc1` (some centres unmarked) [Compound 726]: the pIC50 is 6.00 to 7.00.

For the molecule `CCCCCCOc1ccc([C@@H](O)[C@@H](CN2CCCC2)NC(=O)CCCOc2ccc(C(C)=O)cc2)cc1` [Compound 727], the pIC50 was no less than 7.00.

In the case of `CCCCCCOc1ccc([C@@H](O)[C@@H](CN2CC[C@H](O)C2)NC(=O)CCCOc2ccc(OC)cc2)cc1` [Compound 728], the pIC50 was no less than 7.00.

With `CCCCCCOc1ccc([C@@H](O)[C@@H](CN2CC[C@H](O)C2)NC(=O)CCOc2ccc(Cl)cc2)cc1` [Compound 729], the pIC50 was no less than 7.00.

For the molecule `CCCCCCOc1ccc([C@@H](O)[C@@H](CN2CC[C@@H](F)C2)NC(=O)CCCOc2ccc(OC)cc2)cc1` [Compound 730], the pIC50 is no less than 7.00.

In the case of `CCCCCCOc1ccc([C@@H](O)[C@@H](CN2CC[C@@H](F)C2)NC(=O)CCOc2ccc(Cl)cc2)cc1` [Compound 731], the pIC50 was no less than 7.00.

For `COc1ccc(C(=O)CCCC(=O)N[C@H](CN2CC[C@H](O)C2)[C@H](O)c2ccc(OC(C)C)cc2)cc1` [Compound 732], the pIC50 is 6.00 to 7.00.

Take `COc1ccc(OCCCC(=O)N[C@H](CN2CC[C@H](O)C2)[C@H](O)c2ccc(OC(C)C)cc2)cc1` [Compound 733]: the pIC50 was no less than 7.00.

Take `COc1ccc(OCCCC(=O)N[C@H](CN2CC[C@@H](F)C2)[C@H](O)c2ccc(OCCCCF)cc2)cc1` [Compound 734]: the pIC50 is no less than 7.00.

As for `O=C(NCc1ccc(Cl)cc1)N[C@H](CN1CC[C@@H](F)C1)[C@H](O)c1ccc(OCCCCF)cc1` [Compound 735], the pIC50 is no less than 7.00.

Consider `COc1ccc(C(=O)CCCC(=O)N[C@H](CN2CC[C@@H](F)C2)[C@H](O)c2ccc(OCCCCF)cc2)cc1` [Compound 736], for which the pIC50 is no less than 7.00.

With `COCCOc1ccc(C(=O)CCCC(=O)N[C@H](CN2CC[C@H](O)C2)[C@H](O)c2ccc(OC(C)C)cc2)cc1` [Compound 737], the pIC50 is 6.00 to 7.00.

Consider `Cc1ccc(OCCC(=O)N[C@H](CN2CC[C@H](O)C2)[C@H](O)c2ccc(OC(C)C)cc2)cc1` [Compound 738], for which the pIC50 is no less than 7.00.

Consider `Cc1ccc(OCCC(=O)N[C@H](CN2CC[C@@H](F)C2)[C@H](O)c2ccc(OCCCCF)cc2)cc1` [Compound 739], for which the pIC50 is no less than 7.00.

As to `COCCOc1ccc(C(=O)CCCCC(=O)N[C@H](CN2CC[C@H](O)C2)[C@H](O)c2ccc(OC(C)C)cc2)cc1` [Compound 740], the pIC50 is no less than 7.00.
